Tested on: cells of the present invention (Metaheps)
Assay: Long-term toxicity in the cells of the present invention (LDH release over 15 days)
Format: cell-based, human
Conditions: Metaheps incubated 15 days with low concentrations (diclofenac 50 μM, acetaminophen 500 μM)
Procedure: On incubation days 1, 3, 6, 8, 10, 13 and 15 medium samples were drawn and LDH activity in media was determined using the Cytotoxicity Kit from Promega. LDH release was calculated in % as 100×(LDH in media/LDH media+LDH lysate).

SMILES: O=C(O)Cc1ccccc1Nc1c(Cl)cccc1Cl [diclofenac]
- toxicity in Metaheps as measured by LDH release: long-term toxicity

SMILES: CC(=O)Nc1ccc(O)cc1 [acetaminophen]
- toxicity in Metaheps as measured by LDH release: acute toxicity

From patent US8858934B2, “Method for producing cells having characteristics of hepatocytes” (priority 2010, dated 2014)
